Several values for one entry are separate records, joined by “and”; a condition that tells them apart may be missing. Equal entries are not always repeated. Where two headings read alike, the source gives them in different places. Non-standard residues stand in square brackets, D forms with d. Residues, ends and D or L forms follow the SMILES beside them. *: point of attachment. Bz = O=C(c1ccccc1)*; Sar = CNCC(=O)O
Columns and labels:
[1] = system: S. aureus strain CCUG10778 biofilm; conditions: BHI, rabbit plasma coated plate
SrtA [2] = molecular target: T1, SrtA (Staphylococcus aureus, UniProt Q2FV99); experiment: biochemical; set-up: species or system S. aureus; conditions: for IC50: IC50, inhibitor 1 μM to 1500 μM, corrected for molar extinction coefficient; for inhibition at 200 µM: read-out: FRET inhibition, 200 nM SrtA, 200 μM inhibitor, HEPES buffer; for inhibition at 200 µM / FRET inhibition: mean ± SE, triplicate; for FRET inhibition: 200 nM SrtA, 200 μM inhibitor, HEPES buffer
T1 construct: His6 (N); made in house; host or cells: E. coli BL21, pET21b plasmid
Method: In order to screen the activity of SrtA inhibitors, a FRET-based functional assay was used which employs an internally quenched fluorescent (IQF) substrate, Abz-LPETGK(Dnp)-NH2 (Fig. S37a ^†).[5] […] 5-((C4-Nitrobenzyl)thio)-1,3,4-thiadiazol-2-amine was used as a reference inhibitor in the experiment.[42] […]
Fluorescence resonance energy transfer assay
For the FRET assay, the compound 5-((4-nitrobenzyl) thio)-1,3,4-thiadiazol-2-amine was used as a reference and prepared by dissolving 3 µL of the available stock (10 mM) in […] HEPES and 1% DMSO to afford a 300 µM stock concentration for the assay. This reference compound […]
FRET assay was performed with an internally quenched fluorogenic (IQF) substrate to determine the inhibitory activity of the synthesized peptidomimetics. The assay was performed in a 30 μl reaction mixture in HEPES buffer (50 mM HEPES, 150 mM NaCl, 5 mM CaCl2, 0.05% Tween20, pH 7.5). SrtA solution (200 nM) was preincubated with compounds (200 μM) for 15 min at 22 °C followed by the addition of the substrate solution (25 μM Abz-LPETGK(Dnp)-NH2, 5 mM H-Gly3-OH, final assay concentration) in the same buffer. The cleavage of the Abz/Dnp-substrate was quantified by an increase in the fluorescence signal.
The fluorescence signal was monitored each minute for 45 minutes and plotted to obtain the fluorescence rate as a line curve. The assay was performed in 384 well Corning NBS microplates (flat bottom, no lid, low flange, non-binding surface, non-sterile, white polystyrene).
Fluorescence intensity was measured at emission and excitation wavelengths of […] using a Spectramax iD5 plate reader (Molecular Devices, San Jose, CA, USA). Triplicate measurements were taken for each data point to ensure the reproducibility of the results. The average value of the fluorescence signal readouts was plotted against time over […] for each compound to produce a line curve using Origin. The reference compound was used in the experiment to act as a positive control. The slope of each compound curve (Sx) and the slope of the substrate (S0) were extracted using the linear fit function in Microsoft Origin 2019. The percent inhibition was calculated according to the following equation: inhibitory rate = (1 – Sx/S 0) × 100%. For IC50 values, Sx values at different concentrations were plotted against log transformed concentration values and fitted with a sigmodial fit using the DoseResp function using Origin. The bottom asymptote of the dose-response curve was fixed at 0. The data were reported as mean ± SE%. […]

[3] = system: S. aureus strain CCUG10778; experiment: Growth profiling of S. aureus (absorbance at 600 nm); assay type: cell-based; conditions: for effect on bacterial growth (absorbance plateau, OD600): 2 to 128 μg mL^−1, TSB medium, up to 48 hours
Method: To assess whether our most promising compounds have a possibility of being potential antivirulent compounds, they were tested with pathogenic S. aureus bacteria to assess the peptidomimetic inhibitors for their ability to inhibit bacterial growth. Firstly, our compounds were incubated with S. aureus bacteria in a 96-well plate in Tryptic Soy Broth (TSB) medium, while we also included the reference compound used in the single-point in vitro inhibition studies. So far, the covalent binding thiadiazol reference compound was not tested in this respect, but was one of the most promising compounds identified in an earlier screening campaign.[42] The inhibitors were added at various concentrations, ranging from 2 μg mL^−1 to 128 μg mL^−1, and the absorbance at 600 nm was measured as an indication of their optical density (OD600) and by that the bacteria's ability to propagate in liquid media. In the negative control experiments, the bacteria consistently reached an OD600 of 0.6 between 6 and 12 hours (Fig. 3). […]
For the growth profiling experiments the S. aureus strain CCUG10778 was cultured overnight in sterile TSB medium and diluted 1:100 by adding 1 μL into TSB medium in a sterilized, clear polystyrene 96-well plate to a final assay volume of 100 μL. Subsequently, peptides were added to the bacteria from filter sterilized stocks in MQ-H2O to give 2, 8, 32 and 128 μg/ml final concentrations. Then, bacteria were incubated at 37 °C for 3, 6, 12, 24, 36 or 48 hours and their absorbance was measured at 600 nm using a Varioskan Lux microplate reader (Thermo Fisher Scientific, Waltham, MA, USA). All individual samples were carried out in triplicate. […]
Then, bacteria […]
were incubated at 37 °C for 24 hours and centrifuged for 3 minutes at 3000 rpm in an Eppendorf Microstar 30r centrifuge. The supernatant was discarded and the cells were washed once with sterilized PBS and centrifuged. 100 μL PBS-T (PBS + 0.1% Triton-X) was added to the cells for 15 minutes to induce cell membrane permeabilization. After removal of the PBS-T by centrifugation, 100 μL of 5 μM Sytox Green (Invitrogen, Waltham, MA, USA) solution in PBS

SrtA [4] = conditions: cited from earlier work
S. aureus = experiment: Sytox Green fluorescence measurement of S. aureus incubated with inhibitors; assay type: cell-based; conditions: for Fluorescence value (Sytox Green, 533 nm): 24 hours, control 294.0 ± 0.1
Method: To achieve this, S. aureus was again incubated with our peptidomimetic inhibitors, specifically, 18, 22, 23 and 24 at 8, 32 and 128 μg mL^−1 and harvested after 24 hours to ensure the bacteria reach their growth plateau. Peptide 24 was included to confirm the influence of the N-terminal benzyl group. The bacterial cells were permeabilized and their […] were labelled using Sytox Green and subsequently their fluorescence was measured quantitatively. […] Bacteria incubated with 32 and 128 μg mL^−1 of 18 as well as 128 μg mL^−1 of 22 were also imaged using fluorescence microscopy (Fig. 4). In the control sample, planktonic bacteria could be abundantly observed (Fig. 4a). While it was hard to distinguish the microscopy images for the less strong inhibition (Fig. 4b and c), it became evident from the sample with 128 μg mL^−1 of 18 that visually bacterial growth was affected as well (Fig. 4d) where the bacteria were much more sparsely distributed in the sample. […]
For the fluorescence experiments S. aureus was cultured overnight in sterile TSB medium and diluted 1:250 by adding 2.5 μL bacterial culture into TSB medium in sterilized 1.5 mL Eppendorf tubes to a final volume of 500 μL. Subsequently, peptides were added to the bacteria from filter sterilized stocks in MQ-H2O to give 8, 32 and 128 μg/ml final concentrations. Then, bacteria were incubated at 37 °C for 24 hours and centrifuged for 3 minutes at 3000 rpm in an Eppendorf Microstar 30r centrifuge. The supernatant was discarded and the cells were washed once with sterilized PBS and centrifuged. 100 μL PBS-T (PBS + 0.1% Triton-X) was added to the cells for 15 minutes to induce cell membrane permeabilization. After removal of the PBS-T by centrifugation, 100 μL of 5 μM Sytox Green (Invitrogen, Waltham, MA, USA) solution in PBS […]
was added and the cells were stained for 30 minutes, centrifuged and washed with PBS twice.
For the fluorescence measurements, the cells were resuspended with 100 μL of PBS and added in a sterilized, white plastic polystyrene 96-well plate and their fluorescence was measured by exciting the samples at 488nm and measuring the fluorescence intensity at 533 nm in a microplate reader. All individual samples were carried out in duplicate. For the fluorescence microscopy experiments, the cells were treated in the same, but resuspended in 10 μL of PBS and 5 μL of bacterial suspension was spotted on a glass target plate dipped in a melted solution of 1.2% agarose in Tris-HCl (50 mM) to ensure fixation of the sample. The sledes were covered by a cover glass and observed on an Axio Imager Z2m fluorescence microscope (Zeiss, Jena, Germany) at 100 times magnification at the emission wavelength of […]
Biofilm inhibition assays
For the biofilm inhibition experiments the S. aureus strain CCUG10778 was cultured overnight in sterile BHI broth. A sterilized, clear polystyrene 96-well plate was prepared by coating with plasma by addition of 20% of final assay volume rabbit plasma to the wells and incubating overnight at 4 °C. Then, the cultured strain was diluted 1:100 by adding 2 μL into BHI medium on the plasma coated plate to a total volume of 200 μL. Subsequently, peptides were added to the bacteria from filter sterilized stocks in MQ-H2O to give 8, 32 and 128 μg/ml final concentrations and incubated for 12 hours at 37 °C without shaking. The supernatant was removed and the wells were rinsed with PBS and 100 μL of 1% crystal violet solution (diluted in PBS) was added and the biofilms were stained for 10 minutes. The wells were washed with PBS twice and 200 μL of a 95% ethanol solution in water was added to solubilize the cells for 30 minutes. 100 μL was transferred into a new 96-well plate and the absorbance measured at 595 nm using a Varioskan Lux microplate reader. All individual samples were carried out in […]
All computational studies and analysis steps were performed employing the YASARA molecular modeling program.6, 7
Molecular graphics were created with YASARA (www.yasara.org) and POVRay […]

SrtA [5] = molecular target: T1, SrtA; assay type: biochemical, S. aureus; conditions: 200 nM SrtA, inhibitor at 10 μM (detector oversaturation at 200 μM)

T1 sequence (Q2FV99 60-206): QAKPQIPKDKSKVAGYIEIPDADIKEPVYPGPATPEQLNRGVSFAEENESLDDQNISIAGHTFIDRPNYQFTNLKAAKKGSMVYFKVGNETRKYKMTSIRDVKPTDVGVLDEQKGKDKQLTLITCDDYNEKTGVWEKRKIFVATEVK

CC(C)C[C@H](NC(=O)c1ccccc1)C(=O)N1CCC[C@H]1C(=O)N[C@@H](CCCNC(=N)N)C(=O)N[C@@H](CC(=O)O)C(=O)N(C)CC(N)=O [Compound 18, BzLPRDSar] (Bz-LPRD[Sar]-NH2)
biofilm inhibition ([1]; 8 μg mL^−1, 12 hours): 52%
biofilm inhibition ([1]; 32 μg mL^−1, 12 hours): 73%
biofilm inhibition ([1]; 128 μg mL^−1, 12 hours): 95%
IC50 (SrtA [2]): 57.4 ± 1.1 µM
inhibition at 200 µM (SrtA [2]): 108 ± 6.9%

Nc1nnc(SCc2ccc([N+](=O)[O-])cc2)s1 [Reference (0), 5-((4-nitrobenzyl)thio)-1,3,4-thiadiazol-2-amine, reference compound]
effect on bacterial growth (absorbance plateau, OD600) [3]: did not show any activity
FRET inhibition (SrtA [2]): 77.1 ± 4.1%
IC50 (SrtA [4]; reported covalent inhibitor, ref 42 (supplement ref 4)): 26 ± 0.7 µM
IC50 (SrtA [4]; reported covalent inhibitor, ref 42 (supplement ref 4), listed as 5-((C4-Nitrobenzyl)thio)-1,3,4-thiadiazol-2-amine): ~26 µM

PEG2000-LPRDA-NH2
IC50 (SrtA [4]; reported SrtA inhibitor): 10.6 µM

CbzLPRDA [Compound 14]
FRET inhibition (SrtA [2]): 17.0 ± 2.8%

BzLPRDP [Compound 21]
FRET inhibition (SrtA [2]): 31.0 ± 7.6%

CC(C)C[C@H](NC(=O)c1ccccc1)C(=O)N1CCC[C@H]1C(=O)N[C@@H](CCCNC(=N)N)C(=O)N[C@@H](CC(=O)O)C(=O)N[C@@H](Cc1ccccc1)C(N)=O [Compound 23, BzLPRDF] (Bz-LPRDF-NH2)
IC50 (SrtA [2]): 114 ± 1.3 µM
inhibition at 200 µM (SrtA [2]): 113 ± 26%

BzLPRDA [Compound 11]
FRET inhibition (SrtA [2]): 37% and 37.2 ± 3.1%

CC(C)C[C@H](N)C(=O)N1CCC[C@H]1C(=O)N[C@@H](CCCNC(=N)N)C(=O)N[C@@H](CC(=O)O)C(=O)N(C)CC(N)=O [Compound 5, LPRD-Sar] (H-LPRD[Sar]-NH2)
FRET inhibition (SrtA [2]): 68.5 ± 2.6%
IC50 (SrtA [2]): 18.9 ± 1.2 µM
inhibition at 200 µM (SrtA [2]): 69%

LPET-Sar [Compound 6]
FRET inhibition (SrtA [2]): 19.4 ± 2.6%

ChLPRDA [Compound 12]
FRET inhibition (SrtA [2]): 21.6 ± 4.2%

Ado-LPRDA [Compound 3]
FRET inhibition (SrtA [2]): 22.6 ± 2.8%

H2N-LPRDA-OH [Compound 1]
FRET inhibition (SrtA [2]): 29.2 ± 2.6%

LPRDA-Ado [Compound 2]
FRET inhibition (SrtA [2]): 30.4 ± 2.8%

AcLPRDA [Compound 10]
FRET inhibition (SrtA [2]): 20.7 ± 2.9%

H-FLPRDA-NH2 [Compound 22, FLPRDA]
decrease in absorbance compared to the control ([3]; 128 μg mL^−1, 48 hours, OD600): 22%
effect on bacterial growth (absorbance plateau, OD600) [3]: clear effect on the plateau of the absorbance
FRET inhibition (SrtA [2]): 70.1 ± 5.7%
IC50 (SrtA [2]): 185.3 ± 1.5 µM
inhibition at 200 µM (SrtA [2]): 70%
Fluorescence value (Sytox Green, 533 nm) (S. aureus; 8 μg/ml): 302.3 ± 0.5
Fluorescence value (Sytox Green, 533 nm) (S. aureus; 32 μg/ml): 297.4 ± 0.3
decrease in fluorescence signal (in words) (S. aureus; 128 μg mL^−1, 24 hours): minor effect
Fluorescence value (Sytox Green, 533 nm) (S. aureus; 128 μg/ml): 275.2 ± 1.1

BzLPETP [Compound 19]
FRET inhibition (SrtA [2]): 15.1 ± 3.8%

GTEPL [Compound 9]
FRET inhibition (SrtA [2]): 38% and 37.7 ± 3.1%

2NapLPRDA [Compound 13]
effect on bacterial growth (absorbance plateau, OD600) [3]: did not have any effect
FRET inhibition (SrtA [5]): 47% and 47.4 ± 1.1 (at 10 μM) %

ELPRDA [Compound 27]
FRET inhibition (SrtA [2]): 26% and 26.2 ± 2.0%

H-LPETP-NH2 [Compound 7, LPETP]
IC50 (SrtA [2]): 136.3 ± 1.2 µM

H-LPRDF-NH2 [Compound 24, LPRDF]
IC50 (SrtA [2]): 136.9 ± 1.2 µM
inhibition at 200 µM (SrtA [2]): 42.2 ± 6%
Fluorescence value (Sytox Green, 533 nm) (S. aureus; 8 μg/ml): 315.7 ± 0.6
Fluorescence value (Sytox Green, 533 nm) (S. aureus; 32 μg/ml): 299.9 ± 1.2
Fluorescence value (Sytox Green, 533 nm) (S. aureus; 128 μg/ml): 283.0 ± 0.9

LPRDP [Compound 20]
FRET inhibition (SrtA [2]): 32% and 32.3 ± 8.7%

KSFLPATGGAE [Compound 8]
FRET inhibition (SrtA [2]): 18% and 18.1 ± 2.9%

From paper PMC10306101, “Substrate-derived Sortase A inhibitors: targeting an essential virulence factor of Gram-positive pathogenic bacteria” (Chemical Science, 2023)
